Data published in US20060276465A1, “1,2-di(cyclic) substituted benzene compounds” (Eisai R&D Management Co., Ltd., priority 2003, published 2006).

Tests used:
[1] = test system: human peripheral blood neutrophils; assay: Human peripheral blood neutrophil adhesion system (adhesion to immobilized HUVEC, PMA-stimulated); assay type: cell-based; conditions: 0.75 h, concentration inhibiting by 50% the PMA-stimulated increase in the number of adhered BCECF-AM labeled neutrophils on HUVEC immobilized plate, 45 minutes, 37° C.
Procedure: Evaluation of Compounds in Human Peripheral Blood Neutrophil Adhesion System
<Preparation of Human Peripheral Blood Neutrophils>
To a plastic centrifugation tube containing 100 units of heparin sodium (Shimizu Pharmaceutical) was added 25 ml of fresh blood sampled from a healthy human. After adding and mixing therewith 8 ml of physiological saline (Otsuka Pharmaceutical) containing 6% Dextran (Nacalai), the mixture was allowed to stand at room temperature for 45 minutes for sedimentation of the erythrocytes. The resultant supernatant was transferred to another plastic centrifugation tube and combined with an equivalent volume of phosphate-buffered saline (hereinafter abbreviated as PBS; Sigma), and then centrifuged at 1600 rpm for 7 minutes at room temperature. The obtained hematocyte fraction was suspended in 4 ml of PBS, and the suspension was superposed on 4 ml of Ficoll-Paque™ PLUS (Amersham Biosciences). The resultant bilayer liquid was centrifuged at 2000 rpm for 30 minutes at room temperature, after which the supernatant was removed and the precipitate was suspended in 10 ml of PBS and centrifuged at 1200 rpm for 7 minutes, and the supernatant was removed. The resulting precipitate was suspended in 0.5 ml of PBS again, and then 10 ml of distilled water (Otsuka Pharmaceutical) was added, 0.5 ml of an aqueous solution containing 3 M NaCl was immediately added to restore isotonicity, the mixture was centrifuged at 1200 rpm for 7 minutes, and the obtained precipitate was suspended in PBS containing 1 mg/ml bovine serum albumin (hereinafter abbreviated as BSA; Sigma) again and stored in ice until being used for the experiment.
<Fluorescent Labeling of Human Peripheral Blood Neutrophils>
The obtained neutrophils were suspended in PBS containing 1 mg/ml BSA at 2×10^7 cells/ml. BCECF-AM (Dojin) was added to a final concentration of 5 μM, and the mixture was incubated at 37° C. for 45 minutes. It was then rinsed twice with PBS containing 1 mg/ml BSA by centrifugation, suspended again in PBS containing 1 mg/ml BSA at 5×10^7 cells/ml, and stored in ice until use.
<Preparation of HUVEC Immobilized Plate>
Human umbilical vein endothelial cells (hereinafter abbreviated as HUVEC) were suspended in MCDB131 medium (Chlorella Industries) containing 10% fetal calf serum and 30 μg/ml endothelial cell growth supplement (Becton Dickinson Bioscience). The suspension was added at 7.5×10^3 cells/well to a 96-well plate (Iwaki) immobilized with type I collagen, and cultured for 3 days in a CO2 incubator (Hirasawa). Upon confirming confluency of the cells, the supernatant was discarded, the plate was rinsed twice with PBS, and then PBS containing 0.1% glutaraldehyde (Kanto Kagaku) was added at 100 μl/well and the HUVECs were immobilized for 5 minutes. The supernatant was discarded and the plate was washed twice with PBS, and then PBS was added at 100 μl/well and the mixture was stored at 4° C. until use.
To 6.5 ml of RPMI-1640 medium (Sigma) containing 1 mg/ml of BSA were added 0.5 ml of a suspension of BCECF-AM labeled neutrophils at 5×10^7/ml stored in ice, which was mixed, and the mixture was added at 80 μl/well to a HUVEC immobilized plate. To this plate were immediately added 10 μl/well of a solution of the compound diluted at different concentrations with RPMI-1640 containing 1 mg/ml BSA, and 10 μl/well of 100 nM phorbol myristate acetate (hereinafter abbreviated as PMA; Sigma) in RPMI-1640 containing 1 mg/ml BSA, and the mixture was incubated in a CO2 incubator at 37° C. for 45 minutes. The supernatant was removed from the plate, which was then washed several times with RPMI-1640 at 100 μl/well, and then PBS containing 0.1% NP-40 (Calbiochem) was added thereto at 100 μl/well and the fluorescent intensity was measured with and ARVO™SX 1420 multi label counter (Wallac) to determine the number of adhered cells. […]

Balb/c mice = assay: DSS-induced colitis model; assay type: in vivo; conditions: male Balb/c mice; 1-3% DSS for 5-7 days; 30 mg/kg orally once a day for 5-7 successive days
From the text: Evaluation of Compounds in DSS-Induced Colitis Model
A 1-3% solution of dextran sulfate sodium (hereinafter abbreviated as DSS; ICN) in purified water (Otsuka Pharmaceutical) was fed freely to 6- to 7-week-old male Balb/c mice (Charles River Japan) for 5-7 days to induce colitis. Disease Activity Index (hereinafter abbreviated as DAI) scored based on fecal hardness, blood content in feces and body weight change, the number of neutrophils infiltrating the colon and the length of the colon were used as indexes to evaluate compounds. Each compound was suspended or dissolved in an aqueous solution containing 0.5% methyl cellulose (Wako), and orally administered at 30 mg/kg once a day, for 5-7 successive days.

## COCCN1CCN(c2ccccc2C2CCC(C(C)(C)C)CC2)CC1.Cl (centres unmarked) [Example 19, 1-[2-(4-t-Butylcyclohexyl)phenyl]-4-(2-methoxyethyl)piperazine hydrochloride]
[1]
  IC50: 11.6 µM
Balb/c mice
  improvement in comparison with the DSS control group (DAI, number of neutrophils infiltrating the colon, length of the colon): particularly good improvement
